Reference: patent US20250100987A1 (priority 2021, published 2025)
Like-named read-outs stand apart in the source and are kept apart here.

Tests used:
Assay in all cases: cell-based
[1] = target: T1, Kappa opioid receptor (KOR) (Homo sapiens, UniProt P41145)
[2] = target: T1, Kappa opioid receptor (KOR); remark: listed apart in the source
[3] = target: T1, Kappa opioid receptor (KOR); remark: listed apart in the source

T1 sequence (P41145 whole entry): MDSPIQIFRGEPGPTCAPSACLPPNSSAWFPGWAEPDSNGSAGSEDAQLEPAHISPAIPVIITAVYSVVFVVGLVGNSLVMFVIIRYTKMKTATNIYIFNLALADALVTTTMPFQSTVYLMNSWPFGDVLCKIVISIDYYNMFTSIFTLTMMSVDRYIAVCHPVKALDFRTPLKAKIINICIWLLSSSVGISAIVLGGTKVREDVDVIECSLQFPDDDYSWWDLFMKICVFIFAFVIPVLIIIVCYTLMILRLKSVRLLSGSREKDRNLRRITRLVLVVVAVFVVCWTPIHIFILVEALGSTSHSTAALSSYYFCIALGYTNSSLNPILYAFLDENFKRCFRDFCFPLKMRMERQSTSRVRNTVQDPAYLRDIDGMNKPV

Molecule	EC50 ([1]; EC50 Potency Score) [nM]	EC50 ([2]; EC50 Potency Score) [nM]	other results
COC(=O)[C@@H]1C[C@H](O)C(=O)[C@@H]2[C@H]3C[C@@H](c4ccoc4)CC(=O)[C@@H]3CC[C@]21C [ALB-231274, O6C-20-nor-SalB]	1000 to 10000	100 to 1000	–
COCO[C@H]1C[C@@H](C(=O)OC)[C@]2(C)CC[C@H]3C(=O)C[C@H](c4ccoc4)C[C@@H]3[C@H]2C1=O [ALB-231273]	< 1	< 1	EC50 ([1]; estimated EC50): < 0.1 nM; EC50 ([2]; estimated EC50): < 0.1 nM
O6C-20-nor-SalA Enantiomer B [ALB-230932]	–	–	EC50 ([1]; read-out: EC50 Potency Score): 1 to 100 nM; EC50 ([2]; read-out: EC50 Potency Score): 1 to 100 nM
COC(=O)[C@@H]1C[C@@H](OC(C)=O)C(=O)[C@@H]2[C@@]3(C)C[C@@H](c4ccoc4)CC(=O)[C@@H]3CC[C@]21C [ALB-230935, 2-cpi-O6C-20-nor-SalA]	1 to 100	1 to 100	–
COC(=O)[C@@H]1C[C@H](OC(=O)/C=C/c2ccccc2)C(=O)[C@@H]2[C@H]3C[C@@H](c4ccoc4)CC(=O)[C@@H]3CC[C@]21C [ALB-231360]	1000 to 10000	1000 to 10000	EC50 [3]: ~46000 nM
COC(=O)[C@@H]1C[C@H](OC(C)=O)C(=O)[C@@H]2[C@@]3(C)C[C@@H](c4ccoc4)CC(=O)[C@@H]3CC[C@]21C (racemic) [ALB-230937, O6C-20-nor-SalA racemic mixture]	< 1	< 1	EC50 [3]: < 0.1 nM; inhibition at 0.0001 µM ([3]; read-out: inhibition of cAMP production): 100%
O6C-20-nor-SalA Enantiomer A [ALB-230936]	–	–	EC50 ([1]; read-out: EC50 Potency Score): < 1 nM; EC50 ([2]; read-out: EC50 Potency Score): < 1 nM
